Read-outs that look alike come from different tables or passages of the source.
How the values were obtained:
Assay type in all cases: cell-based
[1] = test system: NIH/3T3 cells; assay: Cell proliferation assay (MTS), NIH/3T3; details: for GI50 / IC50: Mus musculus, NIH3T3; for IC50: Example 7, FIG. 8, read-out: growth inhibition of NIH/3T3 Cell Line IC50; for antiproliferative activity relative to comparator: against each cell line (NIH/3T3, HeLa, A549), in words
Procedure: (§1) Cells were plated at 3×10^4 cells/mL, A549 and HeLa, and 1×10^4 cells/mL, NIH/3T3, in 96-well plates and incubated for 24 h to allow for cell adhesion. LSF-library compounds were dissolved in DMSO, serial diluted in appropriate medium and added to cells in triplicate (2 plates). DMSO was added to control wells at a final concentration of 1%. After 72 h incubation in the presence of compound, confluent cells were assayed for growth proliferation with CellTiter 96® AQueous One Solution Cell Proliferation Assay (MTS) (Promega) according to the manufacturer's protocol. Plates were read at 490 nm on a microplate reader, and IC50 values were determined as the percentage of compound-treated cell growth to control cell growth. HCC cells—one hour after plating HCC cells onto 96-well plates, compound or vehicle (DMSO) was added to the desired concentrations, keeping DMSO at 0.5%. At indicated time points, cell viability was assayed using the CellTiter 96® Non-Radioactive Cell Proliferation Assay (MTT) (Promega).
(§2) QGY-7703 and A549 cells were cultured at 37° C. in 5% CO2 in DMEM (Dulbecco's modification of Eagle's Medium; Corning) supplemented with 10% Fetal Bovine Serum (FBS; Invitrogen). NIH-3T3 cells were cultured at 37° C. in 5% CO2 in DMEM supplemented with 10% Fetal Calf Serum (FCS; Atlanta Biologicals). For cell viability assays, 1,500 cells were seeded in 96-well plates and treated with FQI-34 or vehicle (DMSO) at appropriate concentrations (DMSO at 1%) after 20 hours. After 72-hour incubation with compound or vehicle, cell growth was assessed via the Promega CellTiter 96® AQueous One Solution Cell Proliferation Assay, a colorimetric method to determine the number of viable cells. 20 μL of the CellTiter 96® AQueous One Solution Reagent was added directly into cultured wells and incubated for one hour, after which the absorbance at 490 nm was read with a 96-well plate reader (Opys MR Microplate Reader). The CellTiter 96® AQueous One Solution contains an MTS tetrazolium compound which is bioreduced by cells into a colored formazan product that is soluble in tissue culture medium. The quantity of formazan product as measured by absorbance is directly proportional to the number of living cells in culture. GI50 values were determined from plots of the percentage of compound-treated cell growth to vehicle cell growth vs. compound concentration (GraphPad Prism; non-linear regression 4-parameter curve fit with variable slope).

[2] = test system: A549 cells; assay: Cell proliferation assay (MTS), A549; details: Homo sapiens; for GI50: 72 h, MTS, read-out: GI50 (μM) A549; for IC50: Example 7, FIG. 8, read-out: growth inhibition of A549 Cell Line IC50
Procedure: as §1, §2

[3] = test system: HeLa cells; assay: Cell proliferation assay (MTS), HeLa; details: Homo sapiens; for IC50: HeLa, Example 7, FIG. 8, read-out: growth inhibition of HeLa Cell Line IC50; for GI50: 72 h, MTS
Procedure: as §1

[4] = biological target: T1, LSF (Homo sapiens, UniProt Q12800); assay: LSF-dependent luciferase reporter assay in NIH 3T3 cells; set-up: expressed in transfected cells; host or cells: NIH 3T3; details: for activity in the LSF luciferase reporter assay relative to comparator: in words; for IC50: NIH 3T3 cells, dual luciferase, ranges where few concentrations tested, read-out: IC50 (μM) LSF-dependent reporter assat NIH 3T3
T1 sequence (Q12800 1-502): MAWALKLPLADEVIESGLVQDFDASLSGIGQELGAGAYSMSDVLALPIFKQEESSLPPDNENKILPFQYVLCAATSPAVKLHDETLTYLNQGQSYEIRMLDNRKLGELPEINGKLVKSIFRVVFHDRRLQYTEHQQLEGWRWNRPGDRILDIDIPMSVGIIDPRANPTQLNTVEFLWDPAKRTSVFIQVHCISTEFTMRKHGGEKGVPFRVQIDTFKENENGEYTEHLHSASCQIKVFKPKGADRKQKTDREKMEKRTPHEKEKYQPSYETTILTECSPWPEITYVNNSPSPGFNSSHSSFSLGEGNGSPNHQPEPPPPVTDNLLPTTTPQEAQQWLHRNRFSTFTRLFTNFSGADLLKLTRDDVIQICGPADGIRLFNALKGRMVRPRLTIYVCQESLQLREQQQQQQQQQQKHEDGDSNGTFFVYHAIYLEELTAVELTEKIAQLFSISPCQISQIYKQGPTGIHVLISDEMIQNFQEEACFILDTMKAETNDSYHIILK
Procedure: NIH 3T3 cells were transfected with the expression construct pEF1α-LSF, a LSF expression vector^6,20; the reporter construct pGL3B-WT4E1b, a firefly luciferase reporter vector driven by LSF^12; phRL-TK, a control renilla luciferase reporter vector; and pEFGP, essentially as previously described^12. Five hours after transfection, either vehicle (DMSO) or FQI compound was added, keeping DMSO at 0.5%. Cell extracts were harvested 36 hours post-transfection and firefly and renilla luciferase activities measured via a dual luciferase assay (Promega). Five μl of extract was mixed with 30 μl of luciferase assay reagent (Promega), and luminescence measured for 10 seconds using a 20/20n luminometer (Turner Biosystems). Subsequently, 30 μl of Stop & Glo reagent (Promega) was added, and luminescence also measured for 10 seconds. LSF transactivation activity is given as relative luciferase activity, the ratio of firefly to renilla activities.
NIH-3T3 cells were cultured at 37° C. in 5% CO2 in DMEM (Dulbecco's modification of Eagle's Medium; Corning) supplemented with 10% FCS (FCS; Atlanta Biologicals). Approximately 24 hours prior to transfection, 200,000 cells were plated in 35 mm dishes. After 24 hours, cells were ˜70% confluent, and were transfected for 5 hours with pEF1α-LSF, the reporter construct pGL3B-WT4E1b, phRLTK, and pEFGP (Grant, T. J. et al. Antiproliferative small-molecule inhibitors of transcription factor LSF reveal oncogene addiction to LSF in hepatocellular carcinoma. PNAS (2012), 109, 1-6). Vehicle (DMSO) or FQI-34 was then added, keeping the DMSO at 0.5%. Cell extracts were harvested 36 h post-transfection, and firefly and renilla luciferase activities were measured via a dual luciferase assay (Promega Dual-Luciferase Reporter Assay System). Relative luciferase activity represents firefly luciferase activity normalized to that of renilla luciferase in each extract. IC50 values were determined from plots of normalized luciferase activity vs. compound concentration (Prism GraphPad; non-linear regression 4-parameter curve fit with variable slope).

[5] = test system: QGY-7703 HCC cells; assay: HCC cell viability (MTT), QGY-7703; details: in words
Procedure: as §1

[6] = test system: cancer cell lines; assay: Inhibition of growth of cancer cell lines in vitro (FIGS. 9 and 10); details: 0.2-33 μM
Procedure: FIG. 9A-9K show the results of inhibition of growth of cancer cell lines in vitro by FQI1 (Formula (IV)). The effect of inhibition of cell growth (represented as a fraction of 1) of increasing concentrations of FQI1 between 0.2-33 μM is shown.
The effect of inhibition of cell growth (represented as a fraction of 1) of increasing concentrations of FQI2 between 0.2-33 μM is shown.

[7] = test system: QGY-7703 cells; assay: Cell viability GI50 (MTS), QGY-7703; details: Homo sapiens
Procedure: as §2

[8] = 72 h, MTS, read-out: GI50 (μM) NIH/3T3
[9] = Table 3, read-out: GI50 (μM) NIH 3T3

| IC50 [2] [µM] | IC50 [3] [µM] | IC50 [4] [µM] | Compound | IC50 [1] [µM] | GI50 [1, 9] [µM] | also measured |
| --- | --- | --- | --- | --- | --- | --- |
| 18 ± 3.2 | 8 ± 1 |  | CCOc1ccccc1[C@@H]1CC(=O)Nc2cc3c(cc21)OCO3 [(R)-FQI1] | 45 ± 6.9 |  | GI50 [1, 8]: 45 ± 7 µM; times less active than FQI1 in cell proliferation assays ([1]; NIH/3T3, HeLa and A549): ~10 times; GI50 [2]: 18 ± 3.2 µM; GI50 [3]: 8 ± 1 µM; activity in the LSF luciferase reporter assay relative to comparator [4]: much less active than the racemate |
| 3 ± 1.3 | 0.3 ± 0.025 | 0.8 | CCOc1ccccc1[C@H]1CC(=O)Nc2cc3c(cc21)OCO3 [(S)-FQI1] | 1.1 ± 0.45 | 1.1 ± 0.4 | GI50 [1, 8]: 1.1 ± 0.41 µM; antiproliferative activity relative to comparator [1]: at least twice as active; GI50 [2]: 3 ± 1.3 µM; GI50 [3]: 0.3 ± 0.03 µM; fold more active than the racemate in the luciferase reporter assay ([4]; versus racemic FQI1): approximately 3 fold |
|  |  | 0.8 | CCOc1ccccc1-c1cc(=O)[nH]c2cc3c(cc12)OCO3 [FQI2, 8-(2-ethoxyphenyl)-[1,3]dioxolo[4,5-g]quinolin-6(5H)-one] |  | 0.71 ± 0.13 | GI50 [1, 8]: 0.71 ± 0.13 µM; antiproliferative activity relative to comparator [1]: as active as (S)-FQI1; cellular proliferation of QGY-7703 cells (MTT) [5]: decreased overall cellular proliferation; growth of a variety of cancers, in vitro cell assay [6]: inhibit the growth of a variety of cancers; GI50 [2]: 1.9 ± 0.9 µM; GI50 [3]: 0.4 ± 0.04 µM; activity in the LSF luciferase reporter assay relative to comparator [4]: as effective as the (S)-enantiomer |
| > 300 | 6.6 ± 1.2 |  | CCOc1ccccc1C1CC(=O)Nc2cc3c(cc21)OC(F)(F)O3 (stereo not drawn) [FQI9, 8-(2-ethoxyphenyl)-2,2-difluoro-7,8-dihydro-[1,3]dioxolo[4,5-g]quinolin-6(5H)-one] | 30 ± 3.5 |  |  |
| > 200 | > 200 |  | CCOc1ccccc1C1CC(=O)Nc2cc(OC)c(OC)c(OC)c21 (stereo not drawn) [FQI11, 4-(2-ethoxyphenyl)-5,6,7-trimethoxy-3,4-dihydroquinolin-2(1H)-one] | > 200 |  |  |
|  |  | 3 to 4 | COc1ccccc1C1CC(=O)Nc2cc3c(cc21)OCO3 (stereo not drawn) [FQI12, 8-(2-methoxyphenyl)-7,8-dihydro-[1,3]dioxolo[4,5-g]quinolin-6(5H)-one] |  | 4 ± 0.8 |  |
| > 300 | 8.8 ± 1.4 |  | COc1ccccc1C1CC(=O)Nc2cc3c(cc21)OC(F)(F)O3 (stereo not drawn) [FQI13, 2,2-difluoro-8-(2-methoxyphenyl)-7,8-dihydro-[1,3]dioxolo[4,5-g]quinolin-6(5H)-one] | 72 ± 9.8 |  |  |
| > 10000 |  |  | COc1ccc2c(c1)C(c1ccccc1OC)CC(=O)N2 (stereo not drawn) [FQI14, 6-methoxy-4-(2-methoxyphenyl)-3,4-dihydroquinolin-2(1H)-one] |  |  |  |
| > 200 | > 200 |  | COc1ccccc1C1CC(=O)Nc2cc(OC)c(OC)c(OC)c21 (stereo not drawn) [FQI15, 5,6,7-trimethoxy-4-(2-methoxyphenyl)-3,4-dihydroquinolin-2(1H)-one] | > 200 |  |  |
|  |  | 2 to 4 | CCCOc1ccccc1C1CC(=O)Nc2cc3c(cc21)OCO3 (stereo not drawn) [FQI16, 8-(2-propoxyphenyl)-7,8-dihydro-[1,3]dioxolo[4,5-g]quinolin-6(5H)-one] |  | 2.3 ± 0.5 |  |
| > 200 | > 200 |  | COc1ccc(C2CC(=O)Nc3cc4c(cc32)OCO4)cc1 (stereo not drawn) [FQI19, 8-(4-methoxyphenyl)-7,8-dihydro-[1,3]dioxolo[4,5-g]quinolin-6(5H)-one] | > 200 |  |  |
| > 200 | 67 ± 9.9 |  | COc1ccc(C2CC(=O)Nc3ccc(OC)cc32)cc1 (stereo not drawn) [FQI21, 6-methoxy-4-(4-methoxyphenyl)-3,4-dihydroquinolin-2(1H)-one] | > 200 |  |  |
|  |  |  | CCOCCOCCOCCCc1ccc(C2CC(=O)Nc3cc4c(cc32)OCO4)c(OCC)c1 (stereo not drawn) [PEG-FQI] |  |  | GI50 ([7]; Table 5, read-out: QGY-7703 GI50): > 10 µM; GI50 ([7]; Table 8, read-out: QGY-7703 GI50): > 10 µM |

| Compound | IC50 [2] [µM] | IC50 [3] [µM] | IC50 [4] [µM] | IC50 [1] [µM] | GI50 [1, 9] [µM] | also measured |
| --- | --- | --- | --- | --- | --- | --- |
| CCCCOc1ccccc1C1CC(=O)Nc2cc3c(cc21)OCO3 (stereo not drawn) [FQI3, 8-(2-Butoxyphenyl)-7,8-dihydro-[1,3]dioxolo[4,5-g]quinolin-6(5H)-one] |  |  | 3 to 5 |  | 2.6 ± 0.5 |  |
